According to PubChem BioAssay (NCI):
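Where inhibition never reached the appropriate level, the endpoint shown equals the highest concentration tested. Otherwise, values were interpolated linearly from a five-concentration, 48-hour dose response in 96-well plates. GI50 marks 50% less growth. TGI is the concentration that stops growth completely.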

What was measured:
Experiment in all cases: NCI-60 cell line screen, 48 h
[1] = test system: SK-OV-3 ovarian
[2] = test system: PC-3 prostate
[3] = test system: HCC-2998 colon
[4] = test system: M14 melanoma
[5] = test system: CCRF-CEM leukemia
[6] = test system: NCI-H460 lung
[7] = test system: OVCAR-4 ovarian
[8] = test system: EKVX NSCLC
[9] = test system: NCI-H23 lung
[10] = test system: K-562 leukemia
[11] = test system: HCT-116 colon
[12] = test system: DU-145 prostate
[13] = test system: SK-MEL-28 melanoma
[14] = test system: HOP-92 NSCLC
[15] = test system: KM12 colon
[16] = test system: MOLT-4 leukemia
[17] = test system: NCI-H522 lung
[18] = test system: SN12C renal
[19] = test system: SNB-75 CNS
[20] = test system: COLO 205 colon
[21] = test system: RPMI-8226 leukemia
[22] = test system: SNB-19 CNS
[23] = test system: SK-MEL-2 melanoma
[24] = test system: ACHN renal
[25] = test system: RXF 393 renal
[26] = test system: OVCAR-3 ovarian
[27] = test system: NCI-H226 lung
[28] = test system: UACC-62 melanoma
[29] = test system: BT-549 breast
[30] = test system: T-47D breast
[31] = test system: MDA-MB-435
[32] = test system: HL-60(TB) leukemia
[33] = test system: NCI/ADR-RES ovarian
[34] = test system: OVCAR-8 ovarian
[35] = test system: SF-268 CNS
[36] = test system: MCF7 breast
[37] = test system: A549 NSCLC
[38] = test system: UO-31 renal
[39] = test system: IGROV1 ovarian
[40] = test system: U251 CNS
[41] = test system: HT29 colon
[42] = test system: SF-539 CNS
[43] = test system: MDA-MB-231 breast
[44] = test system: SW-620 colon
[45] = test system: SK-MEL-5 melanoma
[46] = test system: MALME-3M melanoma
[47] = test system: SF-295 CNS
[48] = test system: HS 578T breast
[49] = test system: LOX IMVI melanoma
[50] = test system: OVCAR-5 ovarian
[51] = test system: 786-0 renal
[52] = test system: SR leukemia
[53] = test system: HOP-62 NSCLC
[54] = test system: UACC-257 melanoma
[55] = test system: TK-10 renal
[56] = test system: A498 renal
[57] = test system: HCT-15 colon
[58] = test system: CAKI-1 renal

## CC(=O)OC[C@]1(C)C=C2C(=O)[C@](C)(O)C3(CC3)C(C)=C2[C@H]1OC(=O)N(C)CCN(C)C(=O)OC(C)(C)C
[1]
  GI50: 1180 nM
  TGI: 5.33 µM
[2]
  GI50: 1120 nM
  TGI: 6.51 µM
[3]
  GI50: 1080 nM
  TGI: 3.74 µM
[4]
  GI50: 788 nM
  TGI: 2400 nM
[5]
  GI50: 1440 nM
  TGI: > 33.3 µM
[6]
  GI50: 833 nM
  TGI: 4.19 µM
[7]
  GI50: 797 nM
  TGI: 2.72 µM
[8]
  GI50: 1700 nM
  TGI: 10.7 µM
[9]
  GI50: 651 nM
  TGI: 1.91 µM
[10]
  GI50: 1400 nM
  TGI: > 33.3 µM
[11]
  GI50: 904 nM
  TGI: > 33.3 µM
[12]
  GI50: 850 nM
  TGI: 20.9 µM
[13]
  GI50: 1200 nM
  TGI: 4.69 µM
[14]
  GI50: 1080 nM
  TGI: 3.02 µM
[15]
  GI50: 1350 nM
  TGI: 30.7 µM
[16]
  GI50: 1550 nM
  TGI: > 33.3 µM
[17]
  GI50: 668 nM
  TGI: 1620 nM
[18]
  GI50: 1220 nM
  TGI: 7.83 µM
[19]
  GI50: 1870 nM
  TGI: 8.11 µM
[20]
  GI50: 744 nM
  TGI: 2580 nM
[21]
  GI50: 2270 nM
  TGI: 19.1 µM
[22]
  GI50: 1190 nM
  TGI: > 33.3 µM
[23]
  GI50: 695 nM
  TGI: 1.42 µM
[24]
  GI50: 947 nM
  TGI: 4.2 µM
[25]
  GI50: 581 nM
  TGI: 1320 nM
[26]
  GI50: 1060 nM
  TGI: 4.05 µM
[27]
  GI50: 9.01 µM
  TGI: 25.1 µM
[28]
  GI50: 728 nM
  TGI: 1610 nM
[29]
  GI50: 898 nM
  TGI: 3.13 µM
[30]
  GI50: 858 nM
  TGI: 9.64 µM
[31]
  GI50: 809 nM
  TGI: 2.35 µM
[32]
  GI50: 949 nM
  TGI: > 33.3 µM
[33]
  GI50: 812 nM
  TGI: 2.55 µM
[34]
  GI50: 1050 nM
  TGI: 32.5 µM
[35]
  GI50: 1170 nM
  TGI: 8.57 µM
[36]
  GI50: 652 nM
  TGI: > 33.3 µM
[37]
  GI50: 1360 nM
  TGI: 31.1 µM
[38]
  GI50: 732 nM
  TGI: 2230 nM
[39]
  GI50: 732 nM
  TGI: 3.9 µM
[40]
  GI50: 1110 nM
  TGI: > 33.3 µM
[41]
  GI50: 612 nM
  TGI: 3.26 µM
[42]
  GI50: 816 nM
  TGI: 2.24 µM
[43]
  GI50: 1110 nM
  TGI: 4.72 µM
[44]
  GI50: 896 nM
  TGI: > 33.3 µM
[45]
  GI50: 630 nM
  TGI: 1400 nM
[46]
  GI50: 784 nM
  TGI: 2270 nM
[47]
  GI50: 926 nM
  TGI: 4.88 µM
[48]
  GI50: 2170 nM
  TGI: 14.9 µM
[49]
  GI50: 1040 nM
  TGI: 7.18 µM
[50]
  GI50: 1090 nM
  TGI: 7.18 µM
[51]
  GI50: 938 nM
  TGI: 2.8 µM
[52]
  GI50: 961 nM
  TGI: > 33.3 µM
[53]
  GI50: 1010 nM
  TGI: 3.79 µM
[54]
  GI50: 1820 nM
  TGI: 13.8 µM
[55]
  GI50: 1370 nM
  TGI: 6.87 µM
[56]
  GI50: 1300 nM
  TGI: 4.83 µM
[57]
  GI50: 889 nM
  TGI: > 33.3 µM

## C[C@@H](O)[C@H]1C(=O)N2C(C(=O)O)=C(SCCN=CN)C[C@H]12
[1]
  GI50: 1380 nM
  TGI: 15.8 µM
[2]
  GI50: 2230 nM
  TGI: 7.27 µM
[3]
  GI50: 1810 nM
  TGI: 3.89 µM
[4]
  GI50: 1860 nM
  TGI: 3520 nM
[5]
  GI50: 1660 nM
  TGI: 5.73 µM
[6]
  GI50: 1580 nM
  TGI: 5.73 µM
[7]
  GI50: 2210 nM
  TGI: 6.41 µM
[8]
  GI50: 1250 nM
  TGI: 8.61 µM
[9]
  GI50: 1810 nM
  TGI: 4.78 µM
[11]
  GI50: 1430 nM
  TGI: 6.04 µM
[12]
  GI50: 2560 nM
  TGI: 11.7 µM
[13]
  GI50: 1860 nM
  TGI: 3.69 µM
[14]
  GI50: 1800 nM
  TGI: 5.2 µM
[15]
  GI50: 1480 nM
  TGI: 11.4 µM
[16]
  GI50: 2320 nM
  TGI: 6.26 µM
[17]
  GI50: 1580 nM
  TGI: 4120 nM
[58]
  GI50: 2130 nM
  TGI: 5.39 µM
[18]
  GI50: 971 nM
  TGI: 9.47 µM
[19]
  GI50: 2120 nM
  TGI: 5.1 µM
[20]
  GI50: 1380 nM
  TGI: 3220 nM
[21]
  GI50: 1900 nM
  TGI: 6.71 µM
[22]
  GI50: 2190 nM
  TGI: 8.49 µM
[23]
  GI50: 2540 nM
  TGI: 7.7 µM
[24]
  GI50: 1470 nM
  TGI: 5.8 µM
[25]
  GI50: 1550 nM
  TGI: 3580 nM
[26]
  GI50: 2950 nM
  TGI: 84.1 µM
[27]
  GI50: 1.55 µM
  TGI: 3.52 µM
[28]
  GI50: 1720 nM
  TGI: 3330 nM
[29]
  GI50: 2330 nM
  TGI: 7.6 µM
[30]
  GI50: 2650 nM
  TGI: 9.34 µM
[31]
  GI50: 2380 nM
  TGI: 6.01 µM
[32]
  GI50: 2450 nM
  TGI: 6.15 µM
[33]
  GI50: 1850 nM
  TGI: 6.22 µM
[34]
  GI50: 1580 nM
  TGI: 32.5 µM
[35]
  GI50: 1730 nM
  TGI: 5.36 µM
[36]
  GI50: 2890 nM
  TGI: 11.2 µM
[39]
  GI50: 1470 nM
  TGI: 9.06 µM
[40]
  GI50: 2340 nM
  TGI: 10.9 µM
[41]
  GI50: 3100 nM
  TGI: 18.3 µM
[42]
  GI50: 2250 nM
  TGI: 6.35 µM
[43]
  GI50: 2160 nM
  TGI: 8.04 µM
[44]
  GI50: 744 nM
  TGI: 10.4 µM
[45]
  GI50: 1560 nM
  TGI: 2930 nM
[46]
  GI50: 1690 nM
  TGI: 3330 nM
[47]
  GI50: 2670 nM
  TGI: 7.5 µM
[48]
  GI50: 2690 nM
  TGI: 28.3 µM
[49]
  GI50: 1440 nM
  TGI: 3.97 µM
[50]
  GI50: 2910 nM
  TGI: 9.44 µM
[51]
  GI50: 2980 nM
  TGI: 11 µM
[52]
  GI50: 1560 nM
  TGI: 4.94 µM
[53]
  GI50: 1850 nM
  TGI: 5.82 µM
[54]
  GI50: 1800 nM
  TGI: 3.78 µM
[55]
  GI50: 4330 nM
  TGI: > 100 µM
[56]
  GI50: 853 nM
  TGI: 2.44 µM
[57]
  GI50: 2960 nM
  TGI: 11.1 µM
